According to ChEMBL document CHEMBL1201862, “PubChem BioAssay data set” (2004):
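A five-concentration, 48-hour dose response in 96-well plates underlies each endpoint, interpolated linearly between surrounding concentrations. GI50 is the concentration that inhibits growth by half.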 Active and inactive are the calls of the source. Rule as the data show it: active = GI50 up to about 1.1 µM and inactive = higher.

Tests used:
Assay in all cases: NCI tumour cell line growth inhibition, 48 h
[1] = test system: 786-0
[2] = test system: ACHN
[3] = test system: BT-549
[4] = test system: HOP-62
[5] = test system: HT-29
[6] = test system: K562
[7] = test system: KM12
[8] = test system: MCF7
[9] = test system: MDA-MB-435
[10] = test system: MDA-N
[11] = test system: NCI-H460
[12] = test system: NCI/ADR-RES
[13] = test system: OVCAR-3
[14] = test system: OVCAR-4
[15] = test system: OVCAR-5
[16] = test system: SF-295
[17] = test system: SK-MEL-28
[18] = test system: SK-MEL-2
[19] = test system: SK-OV-3
[20] = test system: SNB-19

Measured: GI50

OC(CC(CC(O)(C(F)(F)Cl)C(F)(F)Cl)=NNc1ccccc1)(C(F)(F)Cl)C(F)(F)Cl
inactive: [1] 4.54 µM | [2] 2.79 µM | [3] 1.94 µM | [4] 3.43 µM | [5] 3.06 µM | [6] > 10 µM | [7] 3.12 µM | [8] 2.94 µM | [9] 3.57 µM | [10] 2.87 µM | [11] 3.04 µM | [12] 4.05 µM | [13] 2.77 µM | [14] 3.33 µM | [15] 3.66 µM | [16] 2.91 µM | [17] 2.92 µM | [18] 1.4 µM | [19] 4.04 µM | [20] 4.01 µM

O=C(Nc1nnc(-c2ccccc2)o1)C(SC(=S)N1CCOCC1)c1ccccc1 (centres undefined)
inactive: [1] 17.9 µM | [2] 20.9 µM | [3] 22.5 µM | [4] 24.1 µM | [5] 26.4 µM | [6] 19.5 µM | [7] 34.3 µM | [8] 27.1 µM | [9] 33.2 µM | [10] 26.3 µM | [11] 10.1 µM | [12] 14.6 µM | [13] 15 µM | [14] 34 µM | [15] 25.6 µM | [16] 21.8 µM | [17] 46.9 µM | [18] 16.8 µM | [19] 42.9 µM | [20] 40.1 µM

Cc1ccc(S(=O)(=O)NNCNC(=O)c2ccccc2)cc1
inactive: [1] > 100 µM | [2] > 100 µM | [3] > 100 µM | [4] > 100 µM | [5] 61.2 µM | [6] 64.4 µM | [7] 85.1 µM | [8] > 100 µM | [9] 32.4 µM | [10] 33.9 µM | [12] 54.6 µM | [13] > 100 µM | [14] > 100 µM | [15] > 100 µM | [16] > 100 µM | [17] > 100 µM | [18] > 100 µM | [19] > 100 µM | [20] > 100 µM

Cc1c(/N=N/c2ccccc2)c(-c2ccccc2)n(C2OC(CO)C(O)C(O)C2O)c(=S)c1C#N (centres undefined)
inactive: [1] 5.14 µM | [2] 3.95 µM | [3] 5.4 µM | [4] 7.14 µM | [5] 6.59 µM | [6] 3.21 µM | [7] 2.98 µM | [8] 4.74 µM | [9] 4.98 µM | [10] 4.71 µM | [11] 10.6 µM | [12] 17.3 µM | [13] 4.56 µM | [14] 6.1 µM | [15] 13.8 µM | [16] 6.71 µM | [17] 4.03 µM | [18] 4.48 µM | [19] 11.1 µM | [20] 7.64 µM
